Experimental data from patent publication US6706663B2, “Herbicidal 3-heterocyclic substituted benzisothiazole and benzisoxazole compounds” (Wyeth, priority 2000, dated 2004).

Columns and labels:
[1] = tested on: CYPSE (Cyperus serotinus); assay: Flooded paddy, preemergence weed control; assay type: in vivo, Rottb.; conditions: rated 3-4 weeks after treatment, 0-9 rating scale
In short: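 Seeds or propagules were planted 0.5 cm deep in silt loam and flooded to 1.5–3 cm. Compounds in 50/50 v/v aqueous/acetone were pipetted into the flood water at about 0.0080 to 0.1250 kg/ha. After 3–4 weeks in the greenhouse, effect was rated visually on a 0–9 scale versus untreated control.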

[2] = tested on: TRZAWR (Wheat, Winter, cv Riband); assay: Preemergence herbicidal evaluation; assay type: in vivo, Triticum aestivum; conditions: preemergence, rated 4-5 weeks after treatment
In short: (§1)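 Seeds planted in potting soil cups and sprayed preemergence with aqueous acetone compound solution. Greenhouse-grown; rated 4–5 weeks after treatment on a 0-9 visual scale (stand, vigor, malformation, size, chlorosis, appearance) versus control.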

[3] = tested on: ECHORC (Echinochloa oryzoides); assay: Flooded paddy, preemergence weed control; assay type: in vivo, Echinochloa oryzoides (Ard.) Fritsch.; conditions: rated 3-4 weeks after treatment, 0-9 rating scale
In short: (§2)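 Flooded silt loam pots, seeds in upper 0.5 cm, water held 1.5–3 cm deep; greenhouse; visual 0-9 score vs control.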

GALAP (Galium aparine) [4] = assay: Preemergence herbicidal evaluation; assay type: in vivo; conditions: preemergence, rated 4-5 weeks after treatment
In short: as §1

[5] = tested on: CHEAL (Chenopodium album); assay: Preemergence herbicidal evaluation; assay type: in vivo, L.; conditions: preemergence, rated 4-5 weeks after treatment
In short: as §1

[6] = tested on: AMBEL (Ambrosia artemisifolia); assay: Preemergence herbicidal evaluation; assay type: in vivo, L.; conditions: preemergence, rated 4-5 weeks after treatment
In short: as §1

[7] = tested on: CASOB (Cassia obtusifolia); assay: Preemergence herbicidal evaluation; assay type: in vivo, L.; conditions: preemergence, rated 4-5 weeks after treatment
In short: as §1

ZEAMX (Corn, Field) [8] = assay: Postemergence herbicidal evaluation; assay type: in vivo, Zea mays, L.
In short: (§3)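 Seedlings grown about two weeks in flats, sprayed, then kept under standard greenhouse care. Rated visually 4–5 weeks after treatment on a 0–9 scale (stand, vigour, malformation, size, chlorosis, overall appearance) relative to untreated control; repeat tests averaged.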

[9] = tested on: CHEAL (Chenopodium album); assay: Postemergence herbicidal evaluation; assay type: in vivo, L.
In short: as §3

[10] = tested on: AMBEL (Ambrosia artemisifolia); assay: Postemergence herbicidal evaluation; assay type: in vivo, L.
In short: as §3

[11] = tested on: CASOB (Cassia obtusifolia); assay: Postemergence herbicidal evaluation; assay type: in vivo, L.
In short: as §3

[12] = tested on: GLXMAW (Soybean, Williams); assay: Preemergence herbicidal evaluation; assay type: in vivo, Glycine max, (L.) Merr. cv Williams; conditions: preemergence, rated 4-5 weeks after treatment
[13] = tested on: IPOHE (Ipomoea hederacea); assay: Preemergence herbicidal evaluation; assay type: in vivo, (L.) Jacq.; conditions: preemergence, rated 4-5 weeks after treatment
[14] = tested on: SAGPY (Sagittaria pygmaea); assay: Flooded paddy, preemergence weed control; assay type: in vivo, L.; conditions: rated 3-4 weeks after treatment, 0-9 rating scale
In short: as §2

[15] = tested on: GLXMAW (Soybean, Williams); assay: Postemergence herbicidal evaluation; assay type: in vivo, Glycine max, (L.) Merr. cv Williams
In short: as §3

GALAP (Galium aparine) [16] = assay: Postemergence herbicidal evaluation; assay type: in vivo
In short: as §3

[17] = tested on: IPOHE (Ipomoea hederacea); assay: Postemergence herbicidal evaluation; assay type: in vivo, (L.) Jacq.
In short: as §3

[18] = tested on: ECHCG (Echinochloa crus-galli); assay: Postemergence herbicidal evaluation; assay type: in vivo, (L.) Beau
In short: as §3

CYPIR (Cyperus iria) = assay: Flooded paddy, preemergence weed control; assay type: in vivo; conditions: rated 3-4 weeks after treatment, 0-9 rating scale
In short: as §2

[19] = tested on: ABUTH (Abutilon theophrasti); assay: Postemergence herbicidal evaluation; assay type: in vivo, Medic.
In short: as §3

ZEAMX (Corn, Field) [20] = assay: Preemergence herbicidal evaluation; assay type: in vivo, Zea mays, L.; conditions: preemergence, rated 4-5 weeks after treatment
ORYSAT (Rice, Tebonnet) = assay: Preemergence herbicidal evaluation; assay type: in vivo, Oryza sativa, (L.) Tebonnet; conditions: preemergence, rated 4-5 weeks after treatment

Cc1cscc1-c1nsc2ccc(-n3c(=O)cc(C(F)(F)F)n(C)c3=O)cc12 [Compound 26, 1-methyl-3-[3-(4-methyl-3-thienyl)-1,2-benzisothiazol-5-yl]-6-(trifluoromethyl)uracil]
herbicidal rating, CYPSE ([1]; rate 0.0320 kg/ha): 0.0 | herbicidal rating, CYPSE ([1]; rate 0.1250 kg/ha): 3.0 | TRZAWR preemergence herbicidal rating ([2]; Rate 0.0620 kg/ha): 2.0 | TRZAWR preemergence herbicidal rating ([2]; Rate 0.1250 kg/ha): 3.0 | TRZAWR preemergence herbicidal rating ([2]; Rate 0.2500 kg/ha): 7.0 | herbicidal rating, ECHORC ([3]; rate 0.0080 kg/ha): 8.0 | herbicidal rating, ECHORC ([3]; rate 0.0320 kg/ha): 9.0 | herbicidal rating, ECHORC ([3]; rate 0.1250 kg/ha): 9.0 | GALAP preemergence herbicidal rating (GALAP (Galium aparine) [4]; Rate 0.0620 kg/ha): 7.0 | GALAP preemergence herbicidal rating (GALAP (Galium aparine) [4]; Rate 0.1250 kg/ha): 7.0 | GALAP preemergence herbicidal rating (GALAP (Galium aparine) [4]; Rate 0.2500 kg/ha): 9.0 | CHEAL preemergence herbicidal rating ([5]; Rate 0.0620 kg/ha): 9.0 | CHEAL preemergence herbicidal rating ([5]; Rate 0.1250 kg/ha): 9.0 | CHEAL preemergence herbicidal rating ([5]; Rate 0.2500 kg/ha): 9.0 | AMBEL preemergence herbicidal rating ([6]; Rate 0.0620 kg/ha): 3.0 | AMBEL preemergence herbicidal rating ([6]; Rate 0.1250 kg/ha): 6.0 | AMBEL preemergence herbicidal rating ([6]; Rate 0.2500 kg/ha): 8.5 | CASOB preemergence herbicidal rating ([7]; Rate 0.0620 kg/ha): 1.0 | CASOB preemergence herbicidal rating ([7]; Rate 0.1250 kg/ha): 3.5 | CASOB preemergence herbicidal rating ([7]; Rate 0.2500 kg/ha): 6.0 | Postemergence herbicidal rating, ZEAMX (ZEAMX (Corn, Field) [8]; rate 0.0320 kg/ha): 5.0 | Postemergence herbicidal rating, ZEAMX (ZEAMX (Corn, Field) [8]; rate 0.0620 kg/ha): 5.5 | Postemergence herbicidal rating, CHEAL ([9]; rate 0.0320 kg/ha): 7.0 | Postemergence herbicidal rating, CHEAL ([9]; rate 0.0620 kg/ha): 9.0 | Postemergence herbicidal rating, AMBEL ([10]; rate 0.0320 kg/ha): 9.0 | Postemergence herbicidal rating, AMBEL ([10]; rate 0.0620 kg/ha): 9.0 | Postemergence herbicidal rating, CASOB ([11]; rate 0.0320 kg/ha): 4.0 | Postemergence herbicidal rating, CASOB ([11]; rate 0.0620 kg/ha): 9.0 | GLXMAW preemergence herbicidal rating ([12]; Rate 0.0620 kg/ha): 1.0 | GLXMAW preemergence herbicidal rating ([12]; Rate 0.1250 kg/ha): 3.0 | GLXMAW preemergence herbicidal rating ([12]; Rate 0.2500 kg/ha): 4.5 | IPOHE preemergence herbicidal rating ([13]; Rate 0.0620 kg/ha): 1.5 | IPOHE preemergence herbicidal rating ([13]; Rate 0.1250 kg/ha): 4.0 | IPOHE preemergence herbicidal rating ([13]; Rate 0.2500 kg/ha): 6.0 | herbicidal rating, SAGPY ([14]; rate 0.0080 kg/ha): 1.5 | herbicidal rating, SAGPY ([14]; rate 0.0320 kg/ha): 5.3 | herbicidal rating, SAGPY ([14]; rate 0.1250 kg/ha): 8.0 | Postemergence herbicidal rating, GLXMAW ([15]; rate 0.0320 kg/ha): 6.0 | Postemergence herbicidal rating, GLXMAW ([15]; rate 0.0620 kg/ha): 6.5 | Postemergence herbicidal rating, GALAP (GALAP (Galium aparine) [16]; rate 0.0320 kg/ha): 5.0 | Postemergence herbicidal rating, GALAP (GALAP (Galium aparine) [16]; rate 0.0620 kg/ha): 6.0 | Postemergence herbicidal rating, IPOHE ([17]; rate 0.0320 kg/ha): 9.0 | Postemergence herbicidal rating, IPOHE ([17]; rate 0.0620 kg/ha): 9.0 | Postemergence herbicidal rating, ECHCG ([18]; rate 0.0320 kg/ha): 3.0 | Postemergence herbicidal rating, ECHCG ([18]; rate 0.0620 kg/ha): 3.0 | herbicidal rating, CYPIR (CYPIR (Cyperus iria); rate 0.0080 kg/ha): 8.5 | herbicidal rating, CYPIR (CYPIR (Cyperus iria); rate 0.0320 kg/ha): 8.3 | herbicidal rating, CYPIR (CYPIR (Cyperus iria); rate 0.1250 kg/ha): 9.0 | Postemergence herbicidal rating, ABUTH ([19]; rate 0.0320 kg/ha): 9.0 | Postemergence herbicidal rating, ABUTH ([19]; rate 0.0620 kg/ha): 9.0 | ZEAMX preemergence herbicidal rating (ZEAMX (Corn, Field) [20]; Rate 0.0620 kg/ha): 2.5 | ZEAMX preemergence herbicidal rating (ZEAMX (Corn, Field) [20]; Rate 0.1250 kg/ha): 3.5 | ZEAMX preemergence herbicidal rating (ZEAMX (Corn, Field) [20]; Rate 0.2500 kg/ha): 6.5 | ORYSAT preemergence herbicidal rating (ORYSAT (Rice, Tebonnet); Rate 0.0620 kg/ha): 2.0 | ORYSAT preemergence herbicidal rating (ORYSAT (Rice, Tebonnet); Rate 0.1250 kg/ha): 3.0 | ORYSAT preemergence herbicidal rating (ORYSAT (Rice, Tebonnet); Rate 0.2500 kg/ha): 5.5
